According to ChEMBL document CHEMBL3046319, “PCR-RFLP detection of the E198A mutation conferring resistance to benzimidazoles in field isolates of Monilinia laxa from Greece” (Crop Prot, 2012):
Converted amounts (≈) assume the structure as drawn. The source made the active and inactive calls. No cut-off for these calls is given here.

Columns and labels:
[1] = test system: Monilinia laxa; test: Fungicidal activity against Monilinia laxa isolate B1 assessed as reduction in mycelial growth rate at 25 degC after 4 days; assay type: functional, organism-based; conditions: isolate B1, 96 h
[2] = test system: Monilinia laxa; test: Fungicidal activity against Monilinia laxa isolate MLK10 assessed as reduction in mycelial growth rate at 1 to 10 ug/ml at 31 degC after 5 days; assay type: functional, organism-based
[3] = test system: Monilinia laxa; test: Fungicidal activity against Monilinia laxa isolate MLK1 assessed as reduction in mycelial growth rate at 1 to 10 ug/ml at 31 degC after 5 days; assay type: functional, organism-based
[4] = test system: Monilinia laxa; test: Fungicidal activity against Monilinia laxa isolate MLKS1 assessed as reduction in mycelial growth rate at 1 to 10 ug/ml at 31 degC after 5 days; assay type: functional, organism-based
[5] = test system: Monilinia laxa; test: Fungicidal activity against Monilinia laxa isolate MLG2 assessed as reduction in mycelial growth rate at 1 to 10 ug/ml at 31 degC after 5 days; assay type: functional, organism-based
[6] = test system: Monilinia laxa; test: Fungicidal activity against Monilinia laxa isolate MLG1 assessed as reduction in mycelial growth rate at 1 to 10 ug/ml at 31 degC after 5 days; assay type: functional, organism-based
[7] = test system: Monilinia laxa; test: Fungicidal activity against Monilinia laxa isolate MLBO8 assessed as reduction in mycelial growth rate at 1 to 10 ug/ml at 31 degC after 5 days; assay type: functional, organism-based
[8] = test system: Monilinia laxa; test: Fungicidal activity against Monilinia laxa isolate MLK12 assessed as mean number of conidia produced in the colony at 25 degC after 12 days by haemocytometer; assay type: functional
[9] = test system: Monilinia laxa; test: Fungicidal activity against Monilinia laxa isolate MLP4 assessed as mean mycelial colony diameter at 25 degC after 4 days; assay type: functional
[10] = test system: Monilinia laxa; test: Fungicidal activity against Monilinia laxa isolate MLC2 assessed as mean mycelial colony diameter at 25 degC after 4 days; assay type: functional
[11] = test system: Monilinia laxa; test: Fungicidal activity against Monilinia laxa isolate MLP2 assessed as mean mycelial colony diameter at 25 degC after 4 days; assay type: functional
[12] = test system: Monilinia laxa; test: Fungicidal activity against Monilinia laxa isolate MLK1 assessed as mycelial growth at 1 ug/ml at 25 degC after 4 days; assay type: functional
[13] = test system: Monilinia laxa; test: Fungicidal activity against Monilinia laxa isolate MLAl8 assessed as reduction in mycelial growth rate at 1 to 10 ug/ml at 31 degC after 5 days; assay type: functional, organism-based
[14] = test system: Monilinia laxa; test: Fungicidal activity against Monilinia laxa isolate KX5 assessed as reduction in mycelial growth rate at 1 to 10 ug/ml at 28 degC after 8 days; assay type: functional, organism-based
[15] = test system: Monilinia laxa; test: Fungicidal activity against Monilinia laxa isolate MLX5 assessed as reduction in mycelial growth rate at 1 to 10 ug/ml at 28 degC after 8 days; assay type: functional, organism-based
[16] = test system: Monilinia laxa; test: Fungicidal activity against Monilinia laxa isolate MLX3 assessed as reduction in mycelial growth rate at 1 to 10 ug/ml at 28 degC after 8 days; assay type: functional, organism-based
[17] = test system: Monilinia laxa; test: Fungicidal activity against Monilinia laxa isolate MLK1 assessed as reduction in mycelial growth rate at 1 to 10 ug/ml at 28 degC after 8 days; assay type: functional, organism-based
[18] = test system: Monilinia laxa; test: Fungicidal activity against Monilinia laxa isolate MLG1 assessed as reduction in mycelial growth rate at 25 degC after 4 days; assay type: functional, organism-based; conditions: isolate MLG1, 96 h
[19] = test system: Monilinia laxa; test: Fungicidal activity against Monilinia laxa isolate MLP4 assessed as mycelial growth at 1 ug/ml at 25 degC after 4 days; assay type: functional
[20] = test system: Monilinia laxa; test: Fungicidal activity against Monilinia laxa isolate MLC6 assessed as reduction in mycelial growth rate at 25 degC after 4 days; assay type: functional, organism-based; conditions: isolate MLC6, 96 h
[21] = test system: Monilinia laxa; test: Fungicidal activity against Monilinia laxa isolate MLBO6 assessed as reduction in mycelial growth rate at 25 degC after 4 days; assay type: functional, organism-based; conditions: isolate MLBO6, 96 h
[22] = test system: Monilinia laxa; test: Fungicidal activity against Monilinia laxa isolate MLX3 assessed as reduction in mycelial growth rate at 1 to 10 ug/ml at 25 to 28 degC; assay type: functional, organism-based
[23] = test system: Monilinia laxa; test: Fungicidal activity against Monilinia laxa isolate MLP7 assessed as reduction in mycelial growth rate at 1 to 10 ug/ml at 25 to 28 degC; assay type: functional, organism-based
[24] = test system: Monilinia laxa; test: Fungicidal activity against Monilinia laxa isolate MLK1 assessed as reduction in mycelial growth rate at 1 to 10 ug/ml at 25 to 28 degC; assay type: functional, organism-based
[25] = test system: Monilinia laxa; test: Fungicidal activity against Monilinia laxa isolate MLC2 assessed as reduction in mycelial growth rate at 1 to 10 ug/ml at 25 to 28 degC; assay type: functional, organism-based
[26] = test system: Monilinia laxa; test: Fungicidal activity against Monilinia laxa isolate MLAl8 assessed as reduction in mycelial growth rate at 1 to 10 ug/ml at 25 to 28 degC; assay type: functional, organism-based
[27] = test system: Monilinia laxa; test: Fungicidal activity against Monilinia laxa isolate MLP7 assessed as reduction in mycelial growth rate at 1 to 10 ug/ml at 31 degC after 5 days; assay type: functional, organism-based
[28] = test system: Monilinia laxa; test: Fungicidal activity against Monilinia laxa isolate MLG1 assessed as mycelial growth at 1 ug/ml at 25 degC after 4 days; assay type: functional
[29] = test system: Monilinia laxa; test: Fungicidal activity against Monilinia laxa isolate MLP4 assessed as virulence in prune fruits assessed as virulence treated 10 min prior to mycelial inoculation at 24 degC after 10 days relative to isolate MLX1by pathogenicity bioassay; assay type: functional
[30] = test system: Monilinia laxa; test: Fungicidal activity against Monilinia laxa isolate KX5 assessed as reduction in mycelial growth rate at 25 degC after 4 days; assay type: functional, organism-based; conditions: isolate KX5, 96 h
[31] = test system: Monilinia laxa; test: Fungicidal activity against Monilinia laxa isolate MLK1 assessed as virulence in prune fruits assessed as virulence treated 10 min prior to mycelial inoculation at 24 degC after 10 days relative to isolate MLX1by pathogenicity bioassay; assay type: functional
[32] = test system: Monilinia laxa; test: Fungicidal activity against Monilinia laxa isolate MLBO2 assessed as virulence in prune fruits assessed as virulence treated 10 min prior to mycelial inoculation at 24 degC after 10 days relative to isolate MLX1by pathogenicity bioassay; assay type: functional
[33] = test system: Monilinia laxa; test: Fungicidal activity against Monilinia laxa isolate MLX1 assessed as mean number of conidia produced in the colony at 25 degC after 12 days by haemocytometer; assay type: functional
[34] = test system: Monilinia laxa; test: Fungicidal activity against Monilinia laxa isolate MLX3 assessed as reduction in mycelial growth rate at 1 to 10 ug/ml at 31 degC after 5 days; assay type: functional, organism-based
[35] = test system: Monilinia laxa; test: Fungicidal activity against Monilinia laxa isolate MLNS1 assessed as reduction in mycelial growth rate at 25 degC after 4 days; assay type: functional, organism-based; conditions: isolate MLNS1, 96 h
[36] = test system: Monilinia laxa; test: Fungicidal activity against Monilinia laxa isolate MLP4 assessed as reduction in mycelial growth rate at 25 degC after 4 days; assay type: functional, organism-based; conditions: isolate MLP4, 96 h
[37] = test system: Monilinia laxa; test: Fungicidal activity against Monilinia laxa isolate MLK9 assessed as reduction in mycelial growth rate at 25 degC after 4 days; assay type: functional, organism-based; conditions: isolate MLK9, 96 h
[38] = test system: Monilinia laxa; test: Fungicidal activity against Monilinia laxa isolate MLK7 assessed as reduction in mycelial growth rate at 25 degC after 4 days; assay type: functional, organism-based; conditions: isolate MLK7, 96 h
[39] = test system: Monilinia laxa; test: Fungicidal activity against Monilinia laxa isolate MLK5 assessed as reduction in mycelial growth rate at 25 degC after 4 days; assay type: functional, organism-based; conditions: isolate MLK5, 96 h
[40] = test system: Monilinia laxa; test: Fungicidal activity against Monilinia laxa isolate MLK4A assessed as reduction in mycelial growth rate at 25 degC after 4 days; assay type: functional, organism-based; conditions: 96 h
[41] = test system: Monilinia laxa; test: Fungicidal activity against Monilinia laxa isolate MLK4 assessed as reduction in mycelial growth rate at 25 degC after 4 days; assay type: functional, organism-based; conditions: isolate MLK4, 96 h
[42] = test system: Monilinia laxa; test: Fungicidal activity against Monilinia laxa isolate MLK2 assessed as reduction in mycelial growth rate at 25 degC after 4 days; assay type: functional, organism-based; conditions: isolate MLK2, 96 h

COC(=O)Nc1nc2ccccc2[nH]1 [CARBENDAZIM]
EC50 [1]: > 50 µg/mL | inhibition [2]: Active | inhibition [3]: Active | inhibition [4]: Active | inhibition [5]: Active | inhibition [6]: Active | inhibition [7]: Active | Activity [8]: 4.7 /cm2 | Activity [9]: 32.5 mm | Activity [10]: 29.5 mm | Activity [11]: 25.5 mm | Activity [12]: 99.9% | inhibition [13]: Active | inhibition [14]: inactive | inhibition [15]: inactive | inhibition [16]: inactive | inhibition [17]: inactive | EC50 [18]: 0.1 µg/mL (≈ 0.523 µM) | Activity [19]: 94.44% | EC50 [20]: 0.12 µg/mL (≈ 0.628 µM) | EC50 [21]: 0.12 µg/mL (≈ 0.628 µM) | inhibition [22]: inactive | inhibition [23]: inactive | inhibition [24]: inactive | inhibition [25]: inactive | inhibition [26]: inactive | inhibition [27]: Active | Activity [28]: 0% | Activity [29]: 100% | EC50 [30]: > 50 µg/mL | Activity [31]: 97.77% | Activity [32]: 95% | Activity [33]: 4 /cm2 | inhibition [34]: Active | EC50 [35]: > 50 µg/mL | EC50 [36]: > 50 µg/mL | EC50 [37]: 0.08 µg/mL (≈ 0.418 µM) | EC50 [38]: 0.08 µg/mL (≈ 0.418 µM) | EC50 [39]: > 50 µg/mL | EC50 [40]: 0.12 µg/mL (≈ 0.628 µM) | EC50 [41]: > 50 µg/mL | EC50 [42]: > 50 µg/mL
